Key:
Assay in all cases: relative viability (nuclei count vs DMSO), 5 days (fraction); higher = more cells survive
[1] = compound: O=c1[nH]cc(F)c(=O)[nH]1 [5-Fluorouracil] + CC(C)C[C@H](NC(=O)[C@H](Cc1ccccc1)NC(=O)c1cnccn1)B(O)O [Bortezomib] (partner 0.002 µM)
Method in brief: (§1)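 Relative viability was taken as the ratio of nuclei in treated wells to nuclei in vehicle wells. Lung cancer cell lines in 1536-well plates received compounds by pin tool one day after seeding, either one drug alone or a fixed anchor-drug dose plus five library-drug doses (not always all listed) in √10 steps. Nuclei were counted on 4× images after 5 days of treatment, and values are medians of duplicate plates.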

Sulindac + Phenformin = compound: CC1=C(CC(=O)O)c2cc(F)ccc2/C1=C\c1ccc([S+](C)[O-])cc1 [Sulindac] + N=C(N)NC(=N)NCCc1ccccc1 [Phenformin] (partner 250 µM)
Method in brief: as §1

Sulindac + Palbociclib = compound: CC1=C(CC(=O)O)c2cc(F)ccc2/C1=C\c1ccc([S+](C)[O-])cc1 [Sulindac] + CC(=O)c1c(C)c2cnc(Nc3ccc(N4CCNCC4)cn3)nc2n(C2CCCC2)c1=O [Palbociclib] (partner 0.5 µM)
Method in brief: as §1

[2] = compound: CN[C@@H]1C[C@H]2O[C@@](C)([C@@H]1OC)n1c3ccccc3c3c4c(c5c6ccccc6n2c5c31)C(=O)NC4 [Staurosporine] + C[C@@H](Oc1cc(-c2cnn(C3CCNCC3)c2)cnc1N)c1c(Cl)ccc(F)c1Cl [Crizotinib] (partner 1 µM)
Method in brief: as §1

Cell Line	relative viability ([1]; first compound 0.02 µM)	relative viability ([1]; first compound 0.2 µM)	relative viability ([1]; first compound 0.6325 µM)	relative viability ([1]; first compound 2 µM)	relative viability (Sulindac + Phenformin; first compound 0.08 µM)	relative viability (Sulindac + Phenformin; first compound 0.253 µM)	relative viability (Sulindac + Phenformin; first compound 0.8 µM)	relative viability (Sulindac + Phenformin; first compound 2.53 µM)	relative viability (Sulindac + Phenformin; first compound 8 µM)	relative viability (Sulindac + Palbociclib; first compound 0.08 µM)	relative viability (Sulindac + Palbociclib; first compound 0.253 µM)	relative viability (Sulindac + Palbociclib; first compound 0.8 µM)	relative viability (Sulindac + Palbociclib; first compound 2.53 µM)	relative viability (Sulindac + Palbociclib; first compound 8 µM)	relative viability ([2]; first compound 0.005 µM)	relative viability ([2]; first compound 0.01581 µM)	relative viability ([2]; first compound 0.05 µM)	relative viability ([2]; first compound 0.1581 µM)	relative viability ([2]; first compound 0.5 µM)
BEN	0.779	0.869	0.655	0.655	0.284	0.276	0.227	0.218	0.275	0.415	0.495	0.506	0.483	0.503	1.22	0.754	0.473	0.379	0.266
NCI-H460	1.34	0.488	0.141	0.0496	1.03	0.666	0.201	0.543	0.585	0.199	0.176	0.147	0.239	0.148	0.708	0.677	0.0267	0.0065	0.0073
ChaGo-K-1	0.955	1.04	0.7	0.705	0.592	0.51	0.481	0.5	0.596	1.09	0.918	0.838	0.924	0.988	1.14	–	0.819	0.256	0.203
NCI-H1792	1.03	0.84	0.272	0.185	0.243	0.441	–	0.353	0.255	0.646	0.734	–	0.601	0.635	–	0.822	0.418	0.154	0.16
NCI-H2085	1.09	1.13	0.995	0.738	0.767	0.912	0.593	0.739	0.751	0.406	0.487	0.497	0.508	0.429	0.65	0.516	0.465	0.264	0.237
LC-2-ad	1.01	0.914	0.598	0.276	0.513	0.61	0.427	0.516	0.697	0.521	0.514	0.37	0.469	0.547	0.442	0.368	0.266	0.167	0.116
201T	1.11	1.04	0.417	0.346	0.478	0.435	0.314	0.451	0.486	0.338	0.359	0.386	0.355	0.38	1.03	0.994	0.962	0.847	0.724
NCI-H2023	0.803	0.214	0.11	0.0857	0.423	0.498	0.325	0.419	0.571	0.387	0.429	0.362	0.415	0.454	0.262	0.288	0.132	0.0749	0.0599
NCI-H23	1.07	1.34	0.598	0.309	0.819	–	0.61	0.819	0.824	0.613	0.549	0.495	0.505	0.589	0.296	0.234	0.193	0.176	0.125
LU99A	1.08	1.14	1.01	0.593	0.86	0.853	0.83	0.827	1.11	0.439	0.409	0.389	0.376	0.417	0.391	0.308	0.253	0.157	0.118
NCI-H1437	–	0.218	0.144	0.128	0.251	0.321	0.197	0.301	0.373	0.358	0.296	0.294	0.314	0.333	0.924	0.702	–	0.545	0.449
EKVX	0.786	–	0.154	0.132	0.244	0.214	0.211	0.218	0.226	0.396	0.35	0.31	0.339	0.465	0.666	0.429	0.329	0.253	0.146
ABC-1	0.251	0.274	0.361	0.375	0.23	0.214	0.209	0.255	0.226	0.73	0.946	0.514	0.475	0.639	0.43	0.285	0.149	0.0998	0.0958
NCI-H647	0.925	1.15	0.992	0.61	0.647	0.717	0.246	0.623	0.645	0.462	0.469	0.339	0.431	0.439	0.53	0.295	0.162	0.0569	0.0579
NCI-H1734	0.853	1.06	0.723	0.494	0.402	0.337	–	0.396	0.496	0.298	0.345	0.311	0.32	0.402	0.627	0.4	0.279	0.165	0.132
LCLC-97TM1	0.53	1.03	0.396	0.12	0.497	0.518	0.447	0.441	0.486	0.201	0.244	0.203	0.212	0.277	0.277	0.24	0.234	0.296	0.257
NCI-H322M	1.44	1.17	1.03	0.652	0.881	0.833	0.668	0.762	0.879	0.436	0.462	0.489	0.474	0.46	0.98	0.666	0.654	0.558	0.433

— the supplement of paper PMC10307832
